According to patent publication US20250313604A1, “PEPTIDE PHARMACEUTICALS FOR INSULIN RESISTANCE” (Mederis Diabetes LLC, priority 2014, published 2025):
Non-standard residues stand in square brackets, D forms with d. Residues, ends and D or L forms follow the SMILES beside them. *: point of attachment. GlcA(β-D,1-O-dodecyl) = CCCCCCCCCCCCO[C@@H]1O[C@H](C(=O)*)[C@@H](O)[C@H](O)[C@H]1O; αMeF = C[C@](N)(Cc1ccccc1)C(=O)O; Aib = CC(C)(N)C(=O)O

Assays:
[1] = molecular target: T1, glucagon R (Homo sapiens, UniProt P47871); experiment: Cerep cellular assay, stimulation of cAMP levels, glucagon (human, cloned into CHO cells); assay type: cell-based
T1 construct: host or cells: CHO cells
Description: Compounds were weighed precisely in an amount of approximately 1 mg and assayed in standard cellular assays (Cerep SA). The readout is the amount of cAMP generated in the cells treated with the test compounds, in either agonist or antagonist mode. […] The assays are described in Chicchi, G. G., et al. (1997) J Biol Chem 272:7765-7769 and Runge, S., et al. (2003) Br J Pharmacol 138:787-794.

[2] = Plasma protease stability; assay type: in vitro ADME; conditions: incubation at 30 degC, t=0-8 hrs, LC-MS (FIG. 8)
Description: Standard and QC Sample Preparation: i. […] Make standard working solutions in 50% CH3CN with the stock solution. […] Spiked 10 μL of the working solutions into 90 μL blank plasma and vortex them, iv. […] Transfer the supernatant into an HPLC injection plate for loading on the HPLC column, vi.

[3] = test system: db/db mice; experiment: In vivo assay in db/db mice (blood glucose, body weight, food consumption)

T1 sequence (P47871 26-477): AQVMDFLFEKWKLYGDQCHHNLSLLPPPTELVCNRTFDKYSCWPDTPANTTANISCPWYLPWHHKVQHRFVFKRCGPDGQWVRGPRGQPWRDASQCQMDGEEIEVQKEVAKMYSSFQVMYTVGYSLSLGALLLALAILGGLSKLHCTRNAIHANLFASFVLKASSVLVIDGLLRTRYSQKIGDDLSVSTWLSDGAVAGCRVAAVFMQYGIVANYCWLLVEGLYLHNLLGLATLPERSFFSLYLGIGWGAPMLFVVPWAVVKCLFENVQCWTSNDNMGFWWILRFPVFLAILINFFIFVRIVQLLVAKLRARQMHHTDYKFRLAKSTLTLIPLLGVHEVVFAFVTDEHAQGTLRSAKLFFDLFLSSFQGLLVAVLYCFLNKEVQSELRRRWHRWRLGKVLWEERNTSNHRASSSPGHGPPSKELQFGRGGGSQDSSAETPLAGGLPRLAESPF

amount of intact compound in the human plasma versus time [2] | Compound | GLCR cellular response [1] | db/db mice - Mean Blood Glucose ([3]; 250 nmole/kg s.c., 0 hr) [mg/dL] | db/db mice - Mean Blood Glucose ([3]; 250 nmole/kg s.c., 10 hr) [mg/dL] | db/db mice - Mean Blood Glucose ([3]; 250 nmole/kg s.c., 24 hr) [mg/dL] | db/db mice - Mean Blood Glucose ([3]; 250 nmole/kg s.c., 48 hr) [mg/dL] | db/db mice - Mean Blood Glucose ([3]; 50 nmole/kg s.c., 0 hr) [mg/dL] | db/db mice - Mean Blood Glucose ([3]; 50 nmole/kg s.c., 10 hr) [mg/dL] | db/db mice - Mean Blood Glucose ([3]; 50 nmole/kg s.c., 24 hr) [mg/dL] | db/db mice - Mean Blood Glucose ([3]; 50 nmole/kg s.c., 48 hr) [mg/dL]
 | CCCCCCCCCCCCO[C@@H]1O[C@H](C(=O)NCCCC[C@H](NC(=O)C(C)(C)NC(=O)[C@H](CC(=O)O)NC(=O)[C@H](CC(C)C)NC(=O)[C@H](Cc2ccc(O)cc2)NC(=O)[C@H](CCCCN)NC(=O)[C@H](CO)NC(=O)[C@H](Cc2ccc(O)cc2)NC(=O)[C@H](CC(=O)O)NC(=O)[C@H](CO)NC(=O)[C@@H](NC(=O)[C@](C)(Cc2ccccc2)NC(=O)[C@@H](NC(=O)CNC(=O)[C@H](CCC(N)=O)NC(=O)C(C)(C)NC(=O)[C@@H](N)Cc2c[nH]cn2)[C@@H](C)O)[C@@H](C)O)C(N)=O)[C@@H](O)[C@H](O)[C@H]1O [EU-A391] (H-H[Aib]QGT[αMeF]TSDYSKYLD[Aib]K(GlcA(β-D,1-O-dodecyl))-NH2; N-terminus assumed) | does not change |  |  |  |  |  |  |  | 
essentially no change over 8 hrs | CCCCCCCCCCCCO[C@@H]1O[C@H](C(=O)NCCCC[C@H](NC(=O)[C@@H](NC(=O)[C@H](Cc2ccccc2)NC(=O)[C@H](CCC(=O)O)NC(=O)[C@@H]2CCCCNC(=O)CC[C@H](NC(=O)[C@H](CC(=O)O)NC(=O)[C@H](CC(C)C)NC(=O)[C@H](Cc3ccc(O)cc3)NC(=O)[C@H](CCCCN)NC(=O)[C@H](CO)NC(=O)[C@H](Cc3ccc(O)cc3)NC(=O)[C@H](CC(=O)O)NC(=O)[C@H](CO)NC(=O)[C@@H](NC(=O)[C@H](Cc3ccccc3)NC(=O)[C@@H](NC(=O)CNC(=O)[C@H](CCC(N)=O)NC(=O)C(C)(C)NC(=O)[C@@H](N)Cc3c[nH]cn3)[C@@H](C)O)[C@@H](C)O)C(=O)N[C@@H](CCC(N)=O)C(=O)N[C@@H](C)C(=O)N[C@@H](C)C(=O)N2)[C@@H](C)CC)C(=O)N[C@@H](Cc2c[nH]c3ccccc23)C(=O)N[C@@H](CC(C)C)C(=O)N[C@@H](CC(C)C)C(=O)N[C@@H](CCC(N)=O)C(=O)N[C@H](C(N)=O)[C@@H](C)O)[C@@H](O)[C@H](O)[C@H]1O [EU-A993, His1-Aib2-Gln3-Gly4-Thr5-Phe6-Thr7-Ser8-Asp9-Tyr10-Ser11-Lys12-Tyr13-Leu14-Asp15-Glu*16-Gln17-Ala18-Ala19-Lys*20-Glu21-Phe22-Ile23-Lys(N-omega(1-dodecylbeta-D-glucuronyl))24-Trp25-Leu26-Leu27-Gln28-Thr29-NH2] |  | 503 | 305 | 324 | 426 |  |  |  | 
essentially no change over 8 hrs | CCCCCCCCCCCCO[C@@H]1O[C@H](CO[C@H]2O[C@H](C(=O)NCCCC[C@H](NC(=O)[C@@H](NC(=O)[C@H](Cc3ccccc3)NC(=O)[C@H](CCC(=O)O)NC(=O)[C@@H]3CCCCNC(=O)CC[C@H](NC(=O)[C@H](CC(=O)O)NC(=O)[C@H](CC(C)C)NC(=O)[C@H](Cc4ccc(O)cc4)NC(=O)[C@H](CCCCN)NC(=O)[C@H](CO)NC(=O)[C@H](Cc4ccc(O)cc4)NC(=O)[C@H](CC(=O)O)NC(=O)[C@H](CO)NC(=O)[C@@H](NC(=O)[C@H](Cc4ccccc4)NC(=O)[C@@H](NC(=O)CNC(=O)[C@H](CCC(N)=O)NC(=O)C(C)(C)NC(=O)[C@@H](N)Cc4c[nH]cn4)[C@@H](C)O)[C@@H](C)O)C(=O)N[C@@H](CCC(N)=O)C(=O)N[C@@H](C)C(=O)N[C@@H](C)C(=O)N3)[C@@H](C)CC)C(=O)N[C@@H](Cc3c[nH]c4ccccc34)C(=O)N[C@@H](CC(C)C)C(=O)N[C@@H](CC(C)C)C(=O)N[C@@H](CCC(N)=O)C(=O)N[C@H](C(N)=O)[C@@H](C)O)[C@H](O)[C@H](O)[C@H]2O)[C@@H](O)[C@H](O)[C@H]1O [EU-A1023, His1-Aib2-Gln3-Gly4-Thr5-Phe6-Thr7-Ser8-Asp9-Tyr10-Ser11-Lys12-Tyr13-Leu14-Asp15-Glu*16-Gln17 Ala18-Ala19-Lys*20-Glu21-Phe22-Ile23-Lys (N-omega (1-dodecyl beta-D-melibiouronyl)) 24-Trp25-Leu26-Leu27-Gln28-Thr29-NH2] |  | 508 | 264 | 194 | 375 | 507 | 310 | 355 | 375
